Assay results from patent publication US20250270206A1, “COMPOSITIONS AND METHODS FOR INHIBITION OF RAS” (TheRas, Inc., priority 2022, published 2025).

Key:
[1] = molecular target: T1, Avi-KRAS G12C (1-169) GppNHp/RAF1 RBD-3×FLAG (52-151) (Homo sapiens, UniProt P01116, G12C); assay: KRAS G12C-effector (RAF1 RBD) protein:protein interaction HTRF disruption assay; type: biochemical; settings: PPI HTRF
T1 construct: Avi-KRAS G12C (1-169) GppNHp
Experimental: A protein:protein interaction (PPI) Homogeneous Time Resolved Fluorescence (HTRF) assay was used to determine the effectiveness of compounds of the present disclosure in disrupting KRAS G12C protein and effector (RAF1) binding.
The HTRF assay used the following reagents and proteins: 50 nM Avi-KRAS G12C (1-169) GppNHp/RAF1 RBD-3×FLAG (52-151); 75 nM Avi-RAF1 RBD-3×FLAG; Assay Buffer: 50 mM Tris pH 7.5, 100 mM NaCl, 5 mM MgCl2, 0.1% BSA, 0.01% Tween 20, 10% DMSO; Bead Buffer: 50 mM Tris pH 7.5, 0.01% Tween 20; Assay volume: 20 μL (384 well plate-low volume format); and Compound titration: 30-0.02 μM, 3× dilution series.
The HTRF assay employed the following protocol:
Compounds were dispensed in assay plate (384-well, Grenier Bione #784075) using Echo (model 555) with dose response settings: 200 nL final volume, titration from 100 μM as a 10-point dilution series. KRAS proteins were prepared in assay buffer, and dispensed on plates, 5 μL per well, then incubated for 1 h at room temperature, with 700 rpm shaking. RAF1 RBD were prepared in assay buffer, dispensed onto plates, 5 μL per well, and then incubated for 1 h at room temperature, with 700 rpm shaking. Reagent mix was then prepared and dispensed on plates, 10 μL per well, and then incubated for 1 h at room temperature, with 700 rpm shaking.
Plates were analyzed on an Envision plate reader using the following setting: Excitation 320 nm, Bandwidth 75 nm, Emission 615 nm, Bandwidth 85 nm; Gain 100%; Flashes 100; Lag 60 μs. Data was reported as percentage of activity, with DMSO as 100%. Data was plotted and analyzed using Prism 8.

[2] = molecular target: T2, GTP-loaded KRAS4b (amino acids 1-169) G12C/C118S (Homo sapiens, UniProt P01116, C118S/G12C); assay: MALDI-TOF MS covalent Cys12 modification, GTP-loaded KRAS G12C; type: binding; settings: 15 minutes reaction time, 1 μM protein, 1:2.5 protein to compound ratio
T2 construct: KRAS4b (amino acids 1-169) G12C/C118S protein; made in house
Experimental: (§1) MALDI-TOF MS analysis was performed using 1 μM protein target, and 1:2.5 protein to compound ratio was used.
(§2) Reaction: 1 μM of GppNHp, GTP, or GDP-loaded KRAS4b (amino acids 1-169) G12C/C118S protein (produced in-house by Protein Expression Laboratory, FNLCR/Leidos Biomed) in 20 mM 4-(2-hydroxyethyl)-1-piperazineethanesulfonic acid (HEPES) buffer containing 150 mM NaCl, 1 mM MgCl2, pH 7.3 was prepared freshly before assay. Ten-μL aliquots of protein were dispensed onto low volume 384-well plate, then 375 nL DMSO, and 25 nL of tested compounds from 5 mM DMSO stocks were added to appropriate wells using ECHO 555 acoustic liquid handler (Labcyte Inc.). For each reaction/assay, three blanks were prepared by mixing 10 μL of protein solution with 400 nL DMSO. The contents of the wells were carefully mixed by aspiration, and then each plate was sealed with an adhesive cover, centrifuged at 2000 g for 1 minute, and kept in the dark at room temperature until 5 min, 15 min, 30 min, 2 h, or 6 h collections.
(§3) Target pretreatment: Before each assay MALDI target (Bruker MPT 384 ground steel BC) was pre-treated by pipetting on each spot 0.75 μL of saturated sinapinic acid in acetonitrile (ACN).
(§4) Sample preparation: At collection time point, 2 μL of reaction mixtures were pipetted out into 20 μL MALDI matrix solution (saturated solution of sinapinic acid in 1:1 ACN:water solution containing 0.75% trifluoroacetic acid (TFA)) deposited on 384 well polypropylene plate. Resulting solution was mixed by aspiration, centrifuged at 2000 g for 1 minute, then 1 μL aliquots were dispensed on pre-treated MALDI target using Beckman Coulter Biomek FX^P 96/384-Span-8 Laboratory Automation Workstation. Finally, the MALDI target was dried under mild vacuum to produce spots with fine crystalline structure.
(§5) Measurements: MALDI-TOF measurements were performed on a Bruker Daltonics rapifleX Tissuetyper TOF-TOF mass spectrometer using linear mode and mass range from 18.6 to 21.6 kDa. Detector gain was set to 3.3× (483 V), sample rate to 5 GS/s, real time smoothing to medium (175 MHz), laser smart beam pattern was set to: “MS Thin Layer M5”, and the laser frequency was 10000 Hz. Spectra were automatically collected using custom AutoXecute method. Laser power was auto adjusted using fuzzy control. The peak selection range was set to be between 19000 and 21500 Da. Peak evaluation uses half width parameter set to be smaller than 40 Da for processed spectrograms (centroid peak detection: smoothed by SavitzkyGolay algorithm using 7 m/z width and 2 cycles; baseline was subtracted using median algorithm with flatness 1 and median level 0.01). Fuzzy control used Proteins/Oligonucleotides protocol with minimum half width 1/10 times above threshold. Up to 40000 satisfactory shots were collected in 10000 shot steps. Dynamic termination was implemented to finish data collection when peak signal/noise ratio reached a value of 50.
(§6) Spectra processing: Spectra were smoothed by SavitzkyGolay algorithm using 7 m/z width and three cycles. Centroid peak detection algorithm was used with signal to noise threshold set to 6, relative intensity threshold 4%, peak width 10 m/z and median baseline subtraction using flatness of 1 and median level of 0.01. Peak intensity and area under the peak were evaluated and recorded for all peaks between 19,300 Da and 21,550 Da.
(§7) Calculation of percent modification: Percent modification was calculated as a ratio of peak height for protein modified by compound to sum of peak height of remaining protein plus peak height for protein modified by compound. If multiple modifications were observed each was calculated as a ratio of peak height for given modification versus sum of peak heights for all observed protein species. Data reported in Table 5 are from the 15 minutes reaction time point.

[3] = molecular target: T3, GDP-loaded KRAS4b (amino acids 1-169) G12C/C118S (Homo sapiens, UniProt P01116, C118S/G12C); assay: MALDI-TOF MS covalent Cys12 modification, GDP-loaded KRAS G12C; type: binding; settings: 15 minutes reaction time, 1 μM protein, 1:2.5 protein to compound ratio
T3 construct: KRAS4b (amino acids 1-169) G12C/C118S protein; made in house
Experimental: as §1, §2, §3, §4, §5, §6, §7

pERK in NCI-H358 cells = assay: Cell-based pERK HTRF assay; settings: Homo sapiens, 0.5 h, 30 min incubation
Experimental: pERK HTRF assays (Perkin Elmer) were used to determine the effectiveness of compounds of the present disclosure in disrupting KRAS G12C protein/effector signaling in cells.
On Day 1, cells (NCI-H358) were seeded into 96-well plates at 4×10^4 cells/well in complete growth media (RPMI, 10% FBS).
On Day 2, cells were treated with compounds at 0.25% DMSO. The source plate was created with compounds diluted in media at 5-fold the final assay concentration. The compounds were run in a 9-point concentration curve starting at 75 μM, with a 3-fold dilution between concentrations. 20 μL was transferred onto the cell plates (final volume in wells was 100 μL). Plates were harvested after 30 min incubation by aspirating media and adding kit-supplied 1× supplemented lysis buffer to all wells (75 μL per well). Plates were then placed on a plate shaker and incubated at 850 rpm for an additional 30 min.
Antibody mixture solution was prepared by diluting aliquoted d2 and Eu Cryptate antibodies 1:20 in kit supplied detection buffer, then mixed the diluted antibodies solutions (1:1 v:v). 4 μL of this solution was then added to a 384-well detection plate (Perkin Elmer; 6008230).
Samples were homogenized by pipetting up and down and then transferred (16 μL of cell lysates) from the 96-well cell culture plate to two wells of the HTRF 384-well detection plate containing the antibody solution. Plates were centrifuged (524 g for 1 min) and allowed to incubate between 4 and 24 h at room temperature. Maximum signal is reached after 4 h incubation time and remains stable over a period of 24 hours. Therefore, readings can be made between 4 and 24 h of incubation. Plates were centrifuged again (524 g for 1 min) and analyzed on the EnVision plate reader using the following settings: Excitation 320 nm, Bandwidth 75 nm; Emission 615 nm, Bandwidth 85 nm; Gain 100%; Flashes 100; Lag 60 μs.

[4] = molecular target: T4, GppNHp-loaded KRAS4b (amino acids 1-169) G12C/C118S (Homo sapiens, UniProt P01116, C118S/G12C); assay: MALDI-TOF MS covalent Cys12 modification, GppNHp-loaded KRAS G12C; type: binding; settings: 15 minutes reaction time, 1 μM protein, 1:2.5 protein to compound ratio
T4 construct: KRAS4b (amino acids 1-169) G12C/C118S protein; made in house
Experimental: as §1, §2, §3, §4, §5, §6, §7

Row | SMILES | IC50 [1] | GTP-KRAS G12C percent of modification [2] | GDP-KRAS G12C percent of modification [3] | IC50 (pERK in NCI-H358 cells) | GppNHp-KRAS G12C percent of modification [4]
1 | C=CC(=O)N1CCC(N(C)c2nc(OC)nc3c(F)c(-c4ccc(F)c5sc(N)c(C#N)c45)ncc23)[C@H]1C (some centres unmarked) [Compound 32] |  | D (percent of modification <10%) | C (10%≤percent of modification <50%) | > 1 µM | D (percent of modification <10%)
2 | C=CC(=O)N1CCC(N(C)c2nc(OC[C@@H]3CCCN3C)nc3c(F)c(-c4ccc(F)c5sc(N)c(C#N)c45)ncc23)[C@H]1COC (some centres unmarked) [Compound 26] |  | A (percent of modification ≥70%) | A (percent of modification ≥70%) | 0.1 to 1 µM | A (percent of modification ≥70%)
3 | C=CC(=O)N1CCC(N(C)c2ncnc3c(F)c(-c4ccc(F)c5sc(N)c(C#N)c45)ncc23)[C@H]1C (some centres unmarked) [Compound 36] |  | D (percent of modification <10%) | C (10%≤percent of modification <50%) | > 1 µM | D (percent of modification <10%)
4 | C=CC(=O)N1CC[C@@H](N(C)c2nc(OC[C@@H]3CCCN3C)nc3c(F)c(-c4ccc(F)c5sc(N)c(C#N)c45)ncc23)[C@H]1C [Compound 22] | ≤ 0.5 µM |  |  |  | 

Continued, values first:

Row | IC50 [1] | GTP-KRAS G12C percent of modification [2] | GDP-KRAS G12C percent of modification [3] | IC50 (pERK in NCI-H358 cells) | GppNHp-KRAS G12C percent of modification [4] | SMILES
5 | 0.5 to 5 µM |  |  |  |  | C=CC(=O)N1CC[C@@H](N(C)c2nc(OCCOC)nc3c(F)c(-c4ccc(F)c5sc(N)c(C#N)c45)ncc23)[C@H]1C [Compound 31]
6 |  | D (percent of modification <10%) | C (10%≤percent of modification <50%) | > 1 µM | D (percent of modification <10%) | C=CC(=O)N1CCC(N(C)c2nc(OCCOC)nc3c(F)c(-c4ccc(F)c5sc(N)c(C#N)c45)ncc23)[C@H]1C (some centres unmarked) [Compound 31]
7 | 5 to 20 µM |  |  |  |  | C=CC(=O)N1CC[C@@H](N(C)c2nc(OCCO)nc3c(F)c(-c4ccc(F)c5sc(N)c(C#N)c45)ncc23)[C@H]1C [Compound 35]
8 |  | D (percent of modification <10%) | C (10%≤percent of modification <50%) | > 1 µM | D (percent of modification <10%) | C=CC(=O)N1CCC(N(C)c2nc(OCCO)nc3c(F)c(-c4ccc(F)c5sc(N)c(C#N)c45)ncc23)[C@H]1C (some centres unmarked) [Compound 35]
